Results: patent US12257214B2, “Compositions and methods comprising deoxy-pentitols” (The Charlotte Mecklenburg Hospital Authority, priority 2021, dated 2025)
pIC50: −log10 of the molar value.

Legend:
Type in all cases: cell-based
5637 = experiment: ATPlite cell IC50 screening, 5637; conditions: 5637, Bladder carcinoma; ATPlite luminescence
Experimental: (§1) In brief, the cells were cultures in relevant medium and treated with a range of 9 doses of 2-deoxyribitol, from 10 mM, 5 mM, 2.5 mM, 1.25 mM, 0.62 mM, 0.31 mM, 0.08 mM, and 0.04 mM. Cells were diluted in the corresponding ATCC recommended medium and dispensed in a 384-well plate, depending on the cell line used, at a density of 100-6400 cells per well in 45 μl medium. For each used cell line the optimal cell density was used. The margins of the plate were filled with phosphate-buffered saline. Plated cells were incubated in a humidified atmosphere of 5% CO2 at 37° C. After 24 hours, 5 μl of compound dilution was added and plates were further incubated. At the end of experiment (t=end), 24 μl of ATPlite 1Step™ (PerkinElmer) solution was added to each well, and subsequently shaken for 2 minutes. After 10 minutes of incubation in the dark, the luminescence was recorded on an Envision multimode reader (PerkinElmer). IC50 was determined in comparison with the control samples. The cell lines tested and their corresponding disease model is indicated the left-most and middle columns, respectively. IC50 values are given in μM values in the right-most column. This screening was performed of a list of cancer cells to establish IC50 values for each of the cancer cell lines. This screening provides evidence for the potential of 2DR to treat many cancer types.

A-172 = experiment: ATPlite cell IC50 screening, A-172; conditions: Homo sapiens; A-172, Glioblastoma; ATPlite luminescence
Experimental: as §1

A-427 = experiment: ATPlite cell IC50 screening, A-427; conditions: Homo sapiens; A-427, Lung adenocarcinoma; ATPlite luminescence
Experimental: as §1

A-498 = experiment: ATPlite cell IC50 screening, A-498; conditions: Homo sapiens, A498; A-498, Renal cell carcinoma; ATPlite luminescence
Experimental: as §1

ACHN = experiment: ATPlite cell IC50 screening, ACHN; conditions: Homo sapiens, Papillary renal cell carcinoma, ATPlite luminescence
Experimental: as §1

CCF-STTG1 = experiment: ATPlite cell IC50 screening, CCF-STTG1; conditions: Homo sapiens; CCF-STTG1, Astrocytoma; ATPlite luminescence
Experimental: as §1

CCRF-CEM = experiment: ATPlite cell IC50 screening, CCRF-CEM; conditions: Homo sapiens, Childhood T acute lymphoblastic leukemia, ATPlite luminescence
Experimental: as §1

COLO 829 = experiment: ATPlite cell IC50 screening, COLO 829; conditions: Homo sapiens; COLO 829, Cutaneous melanoma; ATPlite luminescence
Experimental: as §1

HT = experiment: ATPlite cell IC50 screening, HT; conditions: Homo sapiens, Diffuse large B-cell lymphoma, ATPlite luminescence
Experimental: as §1

HuTu 80 = experiment: ATPlite cell IC50 screening, HuTu 80; conditions: Homo sapiens, HuTu80; HuTu 80, Duodenal adenocarcinoma; ATPlite luminescence
Experimental: as §1

J82 = experiment: ATPlite cell IC50 screening, J82; conditions: Homo sapiens; J82, Bladder carcinoma; ATPlite luminescence
Experimental: as §1

Jurkat E6.1 = experiment: ATPlite cell IC50 screening, Jurkat E6.1; conditions: Homo sapiens; Jurkat E6.1, Childhood T acute lymphoblastic leukemia; ATPlite luminescence
Experimental: as §1

KU812 = experiment: ATPlite cell IC50 screening, KU812; conditions: Homo sapiens; KU812, Chronic myelogenous leukemia; ATPlite luminescence
Experimental: as §1

LS 174T = experiment: ATPlite cell IC50 screening, LS 174T; conditions: Homo sapiens, LS174T, Colon adenocarcinoma, ATPlite luminescence
Experimental: as §1

LS411N = experiment: ATPlite cell IC50 screening, LS411N; conditions: Homo sapiens, LS-411N, Cecum adenocarcinoma, ATPlite luminescence
Experimental: as §1

SR = experiment: ATPlite cell IC50 screening, SR; conditions: Homo sapiens, Anaplastic large cell lymphoma, ATPlite luminescence
Experimental: as §1

SU-DHL-1 = experiment: ATPlite cell IC50 screening, SU-DHL-1; conditions: Homo sapiens; SU-DHL-1, Anaplastic large cell lymphoma; ATPlite luminescence
Experimental: as §1

SW948 = experiment: ATPlite cell IC50 screening, SW948; conditions: Homo sapiens; SW948, Colon adenocarcinoma; ATPlite luminescence
Experimental: as §1

THP-1 = experiment: ATPlite cell IC50 screening, THP-1; conditions: Homo sapiens; THP-1, Childhood acute monocytic leukemia; ATPlite luminescence
Experimental: as §1

MCF7 cells = experiment: Mammosphere formation (FIG. 4)
Experimental: Cells were also treated with Vitamin C (VitC) at a concentration of 50 μM for 5 days (5d) and then returned to normal medium (NM) for 6 days (d6), without (lower left panel) or with 2-deoxyribitol (Drug, lower right panel). The formation of cancer mammospheres, considered to be cancer stem cell-rich population, can be seen in culture without Drug treatment, and with Vitamin C treatment only. Drug treatment greatly reduces to eliminates the formation of cancer mammospheres.
To examine mammosphere formation, MCF7 cells were grown for 11 days with or without 2-deoxyribitol (drug) treatment (FIG. 4, top panels). In addition, MCF7 cells were treated with Vitamin C at the concentration of 50 μM for 5 days and then returned to normal medium (“NM”) for 6 days (FIG. 4, lower panels).

[1] = system: normal human myoblasts (HSKM cells); experiment: Normal human myoblast culture (FIG. 7); conditions: HSKM cells, 2, 10, 20 mM, 3 days
Experimental: Three different doses were tested as labeled in the images: 2 mM (top right panel), 10 mM (bottom left panel), and 20 mM (bottom right panel) 2-deoxyribitol. No-drug control is shown in top left panel. Drug effect on growth of the cells is not clearly visible.
In contrast, 2-deoxyribitol produced unnoticeable changes in cell culture of normal human myoblasts or differentiated myotubes (FIG. 7), indicating its low toxicity potential to normal cell populations. In this study, normal human myoblasts (HSKM cells) were treated with 2-deoxyribitol (Drug) for 3 days.

[2] = system: alpha dystroglycan (α-DG); experiment: Glycosylation of alpha dystroglycan
Description: This invention applies a synthetic molecule, 2-deoxyribitol, to treat cancer for growth inhibition and cancer cell killing. Naturally-occurring ribitol is a metabolite, but its metabolic pathway has not been clearly defined. Recently, ribitol has been identified as a precursor of CDP-ribitol, the substrate used for the synthesis of sugar modification of a membrane protein, alpha dystroglycan (α-DG). […] The loss or reduced expression of glycosylation of α-DG has been linked to cancer progression and metastasis in breast and other cancers in clinics, and enhanced glycosylation of α-DG may inhibit cancer cell growth and tumorigenicity. This study screened several different pentose and pentitol molecules including ribose, 2-deoxyribose, ribulose, 2-deoxyribitol, xylose, and xylitol to evaluate these sugar molecules for the effects of enhancing glycosylation of α-DG and inhibiting cancer cell growth/tumorigenicity.

OCC[C@H](O)[C@H](O)CO [2-deoxyribitol]
pIC50 5637: 2.03
pIC50 (A-172): < 2.00
pIC50 (A-427): 2.40
pIC50 (A-498): 2.06
pIC50 (ACHN): 2.50
pIC50 (CCF-STTG1): 2.23
pIC50 (CCRF-CEM): 2.22
pIC50 (COLO 829): 2.20
pIC50 (HT): 2.16
pIC50 (HuTu 80): 2.31
pIC50 (J82): 2.44
pIC50 (Jurkat E6.1): 2.33
pIC50 (KU812): 2.37
pIC50 (LS 174T): 2.60
pIC50 (LS411N): 2.16
pIC50 (SR): 2.37
pIC50 (SU-DHL-1): 2.58
pIC50 (SW948): 2.60
pIC50 (THP-1): 2.28
number of mammospheres after Vitamin C pre-treatment (MCF7 cells; MCF7, Vitamin C 50 μM 5 days, then 6 day treatment with 2-deoxyribitol): decreased dramatically
formation of mammospheres (MCF7 cells; MCF7 grown 11 days, 5 mM): no spheres were seen
cell density or myofiber formation versus control [1]: No difference in cell density or myofiber formation
glycosylation of α-DG [2]: did not enhance glycosylation of α-DG
